In patent US8809359B2, “Phenyl amino pyrimidine bicyclic compounds and uses thereof” (YM Biosciences Australia Pty Ltd, priority 2012, dated 2014):
Where two headings read alike, the source gives them in different places.

Legend:
Format in all cases: biochemical
TYK2 = TYK2 (Homo sapiens, UniProt P29597); experiment: Enzyme screening kinase assay, TYK2
Procedure: (§1) Kinase assays were performed based on the method reported by Anastassiadis, T; et al Nature Biotechnology (2011); 29 (11); p 1039-p 1045 (doi:10.1038/nbt.2017).

JAK2 = JAK2 (Homo sapiens, UniProt O60674); experiment: Enzyme screening kinase assay, JAK2
JAK2, sequence (O60674 whole entry): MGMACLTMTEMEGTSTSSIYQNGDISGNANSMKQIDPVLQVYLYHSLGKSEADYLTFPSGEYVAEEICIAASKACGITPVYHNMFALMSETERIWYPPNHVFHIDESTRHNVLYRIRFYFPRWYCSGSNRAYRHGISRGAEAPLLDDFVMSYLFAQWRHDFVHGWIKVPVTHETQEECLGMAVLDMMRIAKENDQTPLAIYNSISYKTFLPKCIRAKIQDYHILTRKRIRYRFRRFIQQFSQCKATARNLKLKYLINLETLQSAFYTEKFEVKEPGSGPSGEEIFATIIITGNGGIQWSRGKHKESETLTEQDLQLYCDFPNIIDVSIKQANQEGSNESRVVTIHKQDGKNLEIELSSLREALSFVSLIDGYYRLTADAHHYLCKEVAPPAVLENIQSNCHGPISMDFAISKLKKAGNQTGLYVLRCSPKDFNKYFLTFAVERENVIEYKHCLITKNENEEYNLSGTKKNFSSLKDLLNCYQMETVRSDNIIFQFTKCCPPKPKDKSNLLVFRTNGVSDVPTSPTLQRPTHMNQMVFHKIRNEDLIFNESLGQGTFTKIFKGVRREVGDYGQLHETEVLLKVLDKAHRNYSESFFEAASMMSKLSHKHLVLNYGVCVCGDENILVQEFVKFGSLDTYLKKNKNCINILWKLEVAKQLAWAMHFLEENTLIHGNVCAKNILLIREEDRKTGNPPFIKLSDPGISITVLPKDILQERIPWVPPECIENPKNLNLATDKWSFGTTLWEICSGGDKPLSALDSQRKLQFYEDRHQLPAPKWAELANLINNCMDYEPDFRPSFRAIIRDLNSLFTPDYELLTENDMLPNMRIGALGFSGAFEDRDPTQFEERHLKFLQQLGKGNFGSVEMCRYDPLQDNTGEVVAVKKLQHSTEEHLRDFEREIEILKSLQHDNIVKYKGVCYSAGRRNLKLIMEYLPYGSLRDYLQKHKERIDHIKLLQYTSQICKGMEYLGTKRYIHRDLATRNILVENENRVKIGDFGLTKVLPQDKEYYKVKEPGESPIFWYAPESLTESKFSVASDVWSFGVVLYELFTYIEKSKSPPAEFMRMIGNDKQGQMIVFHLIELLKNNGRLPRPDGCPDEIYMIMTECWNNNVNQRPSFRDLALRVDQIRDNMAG
Procedure: as §1

JAK3 = target: T1, JAK3 (Homo sapiens, UniProt P52333); experiment: Enzyme screening kinase assay, JAK3
T1 sequence (P52333 1-1124): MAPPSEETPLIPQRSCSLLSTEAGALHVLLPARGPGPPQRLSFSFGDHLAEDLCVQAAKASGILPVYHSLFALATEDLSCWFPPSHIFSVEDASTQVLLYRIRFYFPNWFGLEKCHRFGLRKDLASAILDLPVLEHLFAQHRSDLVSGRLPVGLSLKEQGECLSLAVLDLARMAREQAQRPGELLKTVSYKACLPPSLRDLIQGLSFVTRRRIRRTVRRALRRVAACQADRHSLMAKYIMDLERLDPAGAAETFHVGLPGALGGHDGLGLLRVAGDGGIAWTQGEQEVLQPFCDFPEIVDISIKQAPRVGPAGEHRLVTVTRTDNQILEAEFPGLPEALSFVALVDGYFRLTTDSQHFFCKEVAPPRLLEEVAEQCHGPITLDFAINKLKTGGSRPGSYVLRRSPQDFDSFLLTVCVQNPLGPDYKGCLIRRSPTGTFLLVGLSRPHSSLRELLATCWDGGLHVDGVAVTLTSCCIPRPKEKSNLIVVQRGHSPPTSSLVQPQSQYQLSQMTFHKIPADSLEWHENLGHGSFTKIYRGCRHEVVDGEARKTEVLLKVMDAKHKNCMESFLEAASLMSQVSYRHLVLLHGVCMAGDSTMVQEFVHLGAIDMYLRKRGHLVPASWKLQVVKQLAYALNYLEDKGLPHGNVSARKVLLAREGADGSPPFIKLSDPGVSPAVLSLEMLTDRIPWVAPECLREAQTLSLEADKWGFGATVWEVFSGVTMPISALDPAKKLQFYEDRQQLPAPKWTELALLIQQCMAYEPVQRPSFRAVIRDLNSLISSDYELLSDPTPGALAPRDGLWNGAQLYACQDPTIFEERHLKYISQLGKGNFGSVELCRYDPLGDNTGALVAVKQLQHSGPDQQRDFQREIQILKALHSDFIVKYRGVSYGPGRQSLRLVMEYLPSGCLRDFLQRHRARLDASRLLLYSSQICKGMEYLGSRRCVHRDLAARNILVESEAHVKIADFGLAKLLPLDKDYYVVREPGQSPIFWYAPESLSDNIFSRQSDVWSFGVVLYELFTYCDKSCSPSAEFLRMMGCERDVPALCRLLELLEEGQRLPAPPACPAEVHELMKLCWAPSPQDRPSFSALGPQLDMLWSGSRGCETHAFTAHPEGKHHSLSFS
Procedure: as §1

JAK1 = JAK1 (Homo sapiens, UniProt P23458); experiment: Enzyme screening kinase assay, JAK1
JAK1, sequence (P23458 whole entry): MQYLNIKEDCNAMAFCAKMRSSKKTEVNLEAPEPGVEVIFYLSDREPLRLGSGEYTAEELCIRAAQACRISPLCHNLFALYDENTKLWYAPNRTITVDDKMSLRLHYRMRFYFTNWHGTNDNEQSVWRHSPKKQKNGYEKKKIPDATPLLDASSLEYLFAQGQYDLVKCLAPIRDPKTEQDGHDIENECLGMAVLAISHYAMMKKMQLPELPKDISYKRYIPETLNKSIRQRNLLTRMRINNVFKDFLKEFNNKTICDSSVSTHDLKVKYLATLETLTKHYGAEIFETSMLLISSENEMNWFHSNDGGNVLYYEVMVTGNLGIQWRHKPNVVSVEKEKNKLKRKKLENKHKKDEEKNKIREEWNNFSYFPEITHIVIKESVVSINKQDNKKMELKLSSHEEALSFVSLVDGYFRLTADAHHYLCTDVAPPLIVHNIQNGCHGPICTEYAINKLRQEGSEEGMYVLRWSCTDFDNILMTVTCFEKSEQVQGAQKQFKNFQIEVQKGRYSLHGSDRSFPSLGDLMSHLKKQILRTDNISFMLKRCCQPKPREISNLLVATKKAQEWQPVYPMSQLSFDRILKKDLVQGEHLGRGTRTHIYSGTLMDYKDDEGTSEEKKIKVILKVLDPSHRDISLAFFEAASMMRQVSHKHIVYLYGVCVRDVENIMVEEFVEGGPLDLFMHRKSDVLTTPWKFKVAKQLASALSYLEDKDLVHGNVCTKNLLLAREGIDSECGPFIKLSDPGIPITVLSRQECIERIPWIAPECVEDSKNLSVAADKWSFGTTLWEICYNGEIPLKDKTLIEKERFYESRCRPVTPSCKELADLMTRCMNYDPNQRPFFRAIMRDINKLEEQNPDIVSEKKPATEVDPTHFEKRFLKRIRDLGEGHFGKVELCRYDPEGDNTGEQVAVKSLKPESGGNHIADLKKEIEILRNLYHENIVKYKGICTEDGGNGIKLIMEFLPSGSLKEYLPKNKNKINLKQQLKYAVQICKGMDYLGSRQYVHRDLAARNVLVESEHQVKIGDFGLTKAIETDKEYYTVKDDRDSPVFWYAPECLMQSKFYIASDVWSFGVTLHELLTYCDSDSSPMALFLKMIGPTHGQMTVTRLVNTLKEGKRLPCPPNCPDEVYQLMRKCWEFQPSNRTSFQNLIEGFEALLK
Procedure: as §1

[1] = Data 1, read-out: TYK2 IC50 Data 1
[2] = Data 2, read-out: TYK2 IC50 Data 2
[3] = Data 1, read-out: JAK2 IC50 Data 1
[4] = Data 2, read-out: JAK2 IC50 Data 2
[5] = Data 1, read-out: JAK3 IC50 Data 1
[6] = Data 2, read-out: JAK3 IC50 Data 2
[7] = Data 1, read-out: JAK1 IC50 Data 1
[8] = Data 2, read-out: JAK1 IC50 Data 2

TYK2, sequence (P29597 whole entry): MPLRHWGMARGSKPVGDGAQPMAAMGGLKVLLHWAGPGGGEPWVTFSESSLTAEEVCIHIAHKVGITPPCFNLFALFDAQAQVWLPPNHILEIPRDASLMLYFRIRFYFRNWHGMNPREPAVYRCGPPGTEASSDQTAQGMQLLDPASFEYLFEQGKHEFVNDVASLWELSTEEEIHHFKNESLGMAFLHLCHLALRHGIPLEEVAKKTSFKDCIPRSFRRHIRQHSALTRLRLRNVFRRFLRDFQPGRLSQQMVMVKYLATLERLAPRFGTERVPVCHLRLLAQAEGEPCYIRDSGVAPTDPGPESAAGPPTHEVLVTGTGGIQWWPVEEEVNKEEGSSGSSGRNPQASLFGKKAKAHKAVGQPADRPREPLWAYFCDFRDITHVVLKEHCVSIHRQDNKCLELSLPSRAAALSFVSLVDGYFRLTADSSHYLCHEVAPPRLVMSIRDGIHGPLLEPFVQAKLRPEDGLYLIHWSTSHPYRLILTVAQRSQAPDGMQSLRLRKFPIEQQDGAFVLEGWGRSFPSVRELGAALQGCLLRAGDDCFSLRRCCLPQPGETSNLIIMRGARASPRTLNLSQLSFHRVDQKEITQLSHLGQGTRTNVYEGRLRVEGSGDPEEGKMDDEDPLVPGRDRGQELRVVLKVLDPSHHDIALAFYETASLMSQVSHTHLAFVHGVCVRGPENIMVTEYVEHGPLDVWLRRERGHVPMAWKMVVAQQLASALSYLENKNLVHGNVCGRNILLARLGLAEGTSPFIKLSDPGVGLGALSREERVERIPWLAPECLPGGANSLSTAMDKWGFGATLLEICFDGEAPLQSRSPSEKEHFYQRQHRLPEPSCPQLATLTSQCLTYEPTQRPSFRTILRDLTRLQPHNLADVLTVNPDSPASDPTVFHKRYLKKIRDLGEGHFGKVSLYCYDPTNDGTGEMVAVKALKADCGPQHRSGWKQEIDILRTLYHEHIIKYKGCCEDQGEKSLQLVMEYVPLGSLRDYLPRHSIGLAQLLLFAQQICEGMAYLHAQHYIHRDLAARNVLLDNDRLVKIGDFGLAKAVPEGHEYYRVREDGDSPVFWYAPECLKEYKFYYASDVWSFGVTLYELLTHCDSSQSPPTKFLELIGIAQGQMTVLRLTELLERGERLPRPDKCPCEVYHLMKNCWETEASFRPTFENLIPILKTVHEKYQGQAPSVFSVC

| IC50 (TYK2; [1]) [nM] | IC50 (TYK2; [2]) [nM] | IC50 (JAK2; [3]) [nM] | IC50 (JAK2; [4]) [nM] | IC50 (JAK3; [5]) [nM] | IC50 (JAK3; [6]) [nM] | IC50 (JAK1; [7]) [nM] | IC50 (JAK1; [8]) [nM] | SMILES |
| --- | --- | --- | --- | --- | --- | --- | --- | --- |
| 4.87 | 4.29 | 30.3 | 34 | 60.9 | 50.8 | 31.5 | 29.2 | N#CCNC(=O)c1ccc(-c2ccnc(Nc3ccc(N4CC[C@]5(CCO5)C4)cc3)n2)cc1 [Compound 7, (S)-4-(2-((4-(1-oxa-6-azaspiro[3.4]octan-6-yl)phenyl)amino)pyrimidin-4-yl)-N-(cyanomethyl)benzamide] |
| 9.98 | 9.98 | 43.5 | 46.4 | 79.3 | 78.5 | 56.9 | 35.7 | N#CCNC(=O)c1ccc(-c2ccnc(Nc3ccc(N4CC[C@@]5(CCO5)C4)cc3)n2)cc1 [Compound 8, (R)-4-(2-((4-(1-oxa-6-azaspiro[3.4]octan-6-yl)phenyl)amino)pyrimidin-4-yl)-N-(cyanomethyl)benzamide] |
| 8.07 | 7.4 | 11.1 | 13.4 | 12.8 | 14 | 22.4 | 21.7 | N#CCNC(=O)c1ccc(-c2ccnc(Nc3ccc(N4C[C@@H]5C[C@H]4CO5)cc3)n2)cc1 [Compound 9, 4-(2-((4-((1S,4S)-2-oxa-5-azabicyclo[2.2.1]heptan-5-yl)phenyl)amino)pyrimidin-4-yl)-N-(cyanomethyl)benzamide] |
| 4.31 | 2.58 | 17 | 16.8 | 22.1 | 27 | 16 | 15.9 | N#CCNC(=O)c1ccc(-c2ccnc(Nc3ccc(N4C[C@H]5C[C@@H]4CO5)cc3)n2)cc1 [Compound 10, 4-(2-((4-((1R,4R)-2-oxa-5-azabicyclo[2.2.1]heptan-5-yl)phenyl)amino)pyrimidin-4-yl)-N-(cyanomethyl)benzamide] |
| 9.47 | 8.54 | 10.6 | 10.8 | 33.8 | 26.3 | 32.8 | 47.4 | N#CCNC(=O)c1ccc(-c2ccnc(Nc3ccc(N4CC5(COC5)C4)cc3)n2)cc1 [Compound 11, 4-(2-((4-(2-oxa-6-azaspiro[3.3]heptan-6-yl)phenyl)amino)pyrimidin-4-yl)-N-(cyanomethyl)benzamide] |

The next lines start with the molecule.

| SMILES | IC50 (TYK2; [1]) [nM] | IC50 (TYK2; [2]) [nM] | IC50 (JAK2; [3]) [nM] | IC50 (JAK2; [4]) [nM] | IC50 (JAK3; [5]) [nM] | IC50 (JAK3; [6]) [nM] | IC50 (JAK1; [7]) [nM] | IC50 (JAK1; [8]) [nM] |
| --- | --- | --- | --- | --- | --- | --- | --- | --- |
| N#CCNC(=O)c1ccc(-c2ccnc(Nc3ccc(N4CC5(CCO5)C4)cc3)n2)cc1 [Compound 1, 4-(2-((4-(1-oxa-6-azaspiro[3.3]heptan-6-yl)phenyl)amino)pyrimidin-4-yl)-N-(cyanomethyl)benzamide] | 38 | 35 | 108 | 103 | 213 | 194 | 224 | 215 |
| N#CCNC(=O)c1ccc(-c2ccnc(Nc3ccc(N4CCC5(CCO5)CC4)cc3)n2)cc1 [Compound 2, 4-(2-((4-(1-oxa-7-azaspiro[3.5]nonan-7-yl)phenyl)amino)pyrimidin-4-yl)-N-(cyanomethyl)benzamide] | 5.09 | 5.65 | 22.2 | 24.5 | 41.8 | 44.8 | 30.6 | 37.9 |
| N#CCNC(=O)c1ccc(-c2ccnc(Nc3ccc(N4CC5CC(C4)O5)cc3)n2)cc1 [Compound 3, 4-(2-((4-(6-oxa-3-azabicyclo[3.1.1]heptan-3-yl)phenyl)amino)pyrimidin-4-yl)-N-(cyanomethyl)benzamide] | 6.83 | 7.3 | 47 | 45 | 80.1 | 82.4 | 32.3 | 41.7 |
| N#CCNC(=O)c1ccc(-c2ccnc(Nc3ccc(N4CC5CCC(C4)O5)cc3)n2)cc1 [Compound 4, 4-(2-((4-(8-oxa-3-azabicyclo[3.2.1]octan-3-yl)phenyl)amino)pyrimidin-4-yl)-N-(cyanomethyl)benzamide] | 5.22 | 6.17 | 29.3 | 29.1 | 92.3 | 80.8 | 28.8 | 28.6 |
| N#CCNC(=O)c1ccc(-c2ccnc(Nc3ccc(N4CCC[C@]5(CCO5)C4)cc3)n2)cc1 [Compound 5, (S)-4-(2-((4-(1-oxa-6-azaspiro[3.5]nonan-6-yl)phenyl)amino)pyrimidin-4-yl)-N-(cyanomethyl)benzamide] | 0.69 | 0.91 | 30 | 25.9 | 60.9 | 56.3 | 10.1 | 10.2 |
| N#CCNC(=O)c1ccc(-c2ccnc(Nc3ccc(N4CCC[C@@]5(CCO5)C4)cc3)n2)cc1 [Compound 6, (R)-4-(2-((4-(1-oxa-6-azaspiro[3.5]nonan-6-yl)phenyl)amino)pyrimidin-4-yl)-N-(cyanomethyl)benzamide] | 2.94 | 2.14 | 14.2 | 14.1 | 33.4 | 32.7 | 17.5 | 19.8 |
